Laboratory results published in US20100197688A1, “EPHA4 RTK INHIBITORS FOR TREATMENT OF NEUROLOGICAL AND NEURODEGENERATIVE DISORDERS AND CANCER” (priority 2008, published 2010).

What was measured:
C2C12 cells [1] = assay: Proliferation assay (cell confluence), C2C12 cells; format: cell-based, mouse; details: at 5 μM
Protocol: C2C12 were plated at 15,000 cells per well and then differentiated into myotubes with DMEM supplemented with 2% horse serum for 3 days in 24 well ImageLock™ plate (Essen Instruments, Mich., USA). Primary Rat cortical astrocytes were plated at 3.105 cells/ml onto 24 well ImageLock™ plate.
Cells were placed into the IncuCyte™ at 37° C. and 95% CO2/5% O2, for two to three days. During this time, the cells within each well were repeatedly imaged at fixed time intervals (every three hours). The IncuCyte™ system automatically monitored the proliferation using the percentage of confluence. Percent of confluence can be graphed over time to evaluate the characteristics of proliferation in the presence of pharmacological agents.
[…] The percentage of reduction of cell confluence was calculated from the AUCs in comparison with the AUCs of the control wells (1% DMSO).

P60c-src = biological target: T1, P60c-src (Homo sapiens, UniProt P12931); assay: Src kinase counterscreen enzymatic assay (TR-FRET); format: biochemical; details: 0.5 μM ATP
T1 construct: purchased Upstate biotechnology, USA
T1 sequence (P12931 whole entry): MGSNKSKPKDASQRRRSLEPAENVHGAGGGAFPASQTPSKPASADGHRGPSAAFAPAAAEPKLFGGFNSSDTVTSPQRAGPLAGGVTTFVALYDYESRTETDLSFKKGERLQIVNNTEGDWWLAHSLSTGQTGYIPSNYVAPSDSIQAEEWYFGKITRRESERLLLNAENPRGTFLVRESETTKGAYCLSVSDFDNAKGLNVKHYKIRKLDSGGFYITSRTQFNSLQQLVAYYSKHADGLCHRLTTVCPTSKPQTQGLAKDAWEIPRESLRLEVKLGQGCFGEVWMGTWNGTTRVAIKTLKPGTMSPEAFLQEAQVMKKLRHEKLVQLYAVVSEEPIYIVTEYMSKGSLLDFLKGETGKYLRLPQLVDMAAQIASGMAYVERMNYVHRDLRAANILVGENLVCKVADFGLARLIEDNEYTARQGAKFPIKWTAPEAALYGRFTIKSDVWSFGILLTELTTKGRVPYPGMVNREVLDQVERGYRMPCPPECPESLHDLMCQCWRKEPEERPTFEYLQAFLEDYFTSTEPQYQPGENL
Protocol: (§1) Counterscreen assays were developed for the tyrosine kinases src kinase and jak2 kinase, with a format essentially identical to the EphA4 kinase TR-FRET format. Jak2 (50 ng) (Cell Signaling, USA) was incubated with 0.5 μM of biotinylated FLT3 peptide (Cell Signaling, USA) in presence of 5 μM of ATP (Sigma). P60c-src (10 U/well) (Upstate biotechnology, USA) was incubated with biotinylated Poly(Glu Tyr) peptide (100 nM) in presence of 0.5 μM of ATP. The enzymatic reaction was stopped after 60 min by adding 15 mM EDTA. The detection reaction and energy transfer signal measurements were similar to those previously described. Results were expressed as ratios of the absorbencies 665/615.
(§2) Compounds were titrated in duplicate at 11 points concentration starting at 100 μM with a 3 fold increment. Compounds were diluted in DMSO. […] Percentage inhibition for each compound was then calculated based on the value of the 100% inhibition. Concentration-response curves were represented and the concentrations for 50% inhibition (IC50) were calculated.

C2C12 cells [2] = assay: Toxicity (percent of cell death), C2C12 cells; format: cell-based; details: 20 μM
Protocol: EphA4 kinase inhibition is assessed by both an enzymatic assay measuring the phosphorylation of a purified recombinant EphA4 kinase and a cell-based assay using the activation of pGas-Luciferase system in EphA4-transfected CHO-K1 cells. The functional effects of EphA4 RTK inhibitors on cell motility and proliferation is evaluated by the scratch wound assay. The effect of EphA4 RTK inhibitors is also directly measured on the cell confluence. The counterscreen assays (cell counterscreen, Src, Jak2 and P38α kinase) identified other potential inhibitory activities of compounds unrelated to EphA4 kinase. The toxicity is measured by the percent of cell death in the different cell assays. Values represent IC50 and IP in μM calculated from the dose-response curves. Values in parentheses give the maximum percent inhibition.

Jak2 = biological target: T2, Jak2 (Homo sapiens, UniProt O60674); assay: Jak2 kinase counterscreen enzymatic assay (TR-FRET); format: biochemical; details: 5 μM ATP
T2 construct: purchased Cell Signaling, USA
T2 sequence (O60674 whole entry, species assumed): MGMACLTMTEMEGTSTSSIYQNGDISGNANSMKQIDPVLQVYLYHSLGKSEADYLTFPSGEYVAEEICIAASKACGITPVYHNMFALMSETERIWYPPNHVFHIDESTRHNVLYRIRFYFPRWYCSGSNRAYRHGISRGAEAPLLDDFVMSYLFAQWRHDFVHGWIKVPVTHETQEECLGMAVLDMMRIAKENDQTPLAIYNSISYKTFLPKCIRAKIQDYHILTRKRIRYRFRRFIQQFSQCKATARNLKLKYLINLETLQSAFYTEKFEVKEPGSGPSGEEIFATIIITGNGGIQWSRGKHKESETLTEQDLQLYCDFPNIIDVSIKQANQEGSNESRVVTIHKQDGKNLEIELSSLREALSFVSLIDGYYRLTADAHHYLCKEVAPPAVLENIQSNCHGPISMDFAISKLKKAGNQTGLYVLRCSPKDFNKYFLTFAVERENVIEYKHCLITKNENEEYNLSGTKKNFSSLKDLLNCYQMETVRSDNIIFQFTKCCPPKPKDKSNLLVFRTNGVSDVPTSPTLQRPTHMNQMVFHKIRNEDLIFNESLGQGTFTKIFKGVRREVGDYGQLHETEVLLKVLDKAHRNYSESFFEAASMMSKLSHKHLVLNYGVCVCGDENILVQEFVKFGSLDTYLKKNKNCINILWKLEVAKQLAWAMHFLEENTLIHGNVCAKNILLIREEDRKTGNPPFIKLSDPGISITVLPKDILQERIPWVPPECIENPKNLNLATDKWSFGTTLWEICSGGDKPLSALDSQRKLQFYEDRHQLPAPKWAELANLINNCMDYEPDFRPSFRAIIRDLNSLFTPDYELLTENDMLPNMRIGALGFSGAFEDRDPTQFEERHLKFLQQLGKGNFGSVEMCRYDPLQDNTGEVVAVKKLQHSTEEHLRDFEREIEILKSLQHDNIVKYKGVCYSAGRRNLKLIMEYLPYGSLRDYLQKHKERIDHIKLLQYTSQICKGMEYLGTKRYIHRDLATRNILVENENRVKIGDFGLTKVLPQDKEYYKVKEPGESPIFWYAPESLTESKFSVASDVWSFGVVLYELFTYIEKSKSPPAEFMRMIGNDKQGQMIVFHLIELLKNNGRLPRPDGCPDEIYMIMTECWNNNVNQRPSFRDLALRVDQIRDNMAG
Protocol: as §1, §2

CHO-K1 cells = assay: Cell viability (Cell Glo) in EphA4 cell assay; format: cell-based, Chinese Hamster
Protocol: Transfection and Luciferase Assay: CHO-K1 cells were plated in T-175 cell culture bottle in DMEM medium supplemented with 10% fetal bovine serum, 1 mM sodium pyruvate, 2 mM L-glutamine and 1.5 g/L sodium bicarbonate. When cell reached 70-80% confluence, transfections were performed in T-175 culture flasks, using Lipofectamine 2000™ transfection reagent (Invitrogen) according to the manufacturer's directions. For the luciferase assay CHO-K1 cells were co-transfected the next day with […] of pGAS-Luc, 70 mg of EphA4, and 5 mg of empty vector pRL-CMV, which encoded the Renilla luciferase, and was included in the transfection mix for normalization. […] Cells were lysed the next day using the Reporter Lysis Buffer (Promega), and the luciferase activity was measured using the Dual Luciferase Assay (Promega) following the manufacturer's directions. The Firefly and Renilla luminescences are read consecutively on a Top-Count (Perkin-Elmer). Results are expressed as a ratio of the two luminsescence: Firefly Luciferase/Renilla Luciferase. Cell viability was assessed on parallel plates using the Cell Glo Assay (Promega) following the manufacturer's directions. Results are expressed as percent of cell death in comparison with vehicle-treated wells.

[3] = tested on: C2C12 mouse myoblast cell line; assay: Scratch wound assay, C2C12 cells; format: cell-based; details: for IC50: Mus musculus, C2C12, inflexion point, from AUC of % wound confluence, read-out: Scratch Assay C2C12 Cells IP; for Scratch Assay C2C12 Cells max inhibition in %: value in parentheses
Protocol: Cell Cultures: C2C12 mouse myoblast cell line (ATCC, VA, USA) was maintained in culture in DMEM media supplemented with 10% fetal bovine serum, 1 mM sodium pyruvate, 1.5 g/L sodium bicarbonate, and 100 IU of penicillin, […] of streptomycin. The cells were then differentiated into myotubes with DMEM supplemented with 2% horse serum for 3 days in 24 well ImageLock™ plate (Essen Instruments, Mich., USA).
Scratch wound assays are commonly used to assess the effects of drugs and drug candidates on the cellular proliferation and/or migration associated with wound closing. The IncuCyte™ system (Essen Instruments, Mich., USA), an automated imaging platform, provides ongoing, real-time images and quantitative data generated throughout the wound-closing process. Cells were maintained in 24 well ImageLock™ (Essen Instruments, Mich., USA) at 37° C. and […], until a confluent monolayer was achieved. A single scratch wound was then created in each well using the Essen Woundmaker™ (Essen Instruments, Mich., USA). It induced a mechanical scratch of the cell monolayer using plastic pipette tips (10-20 μl pipette tips, Eppendorff). Dead cells and other debris produced by the scratch were immediately washed with regular growth media. Cells were then treated with pharmacological agents and were placed into the IncuCyte™ at 37° C. and […], for two to three days. During this time, the wound area within each well was repeatedly imaged at fixed time intervals (every three hours). The IncuCyte™ scratch wound software generates a “wound mask” for each well. An initial wound mask is created for the first image (at time 0) that clearly delineates the border of the wound. A revised mask is generated for each subsequent image to track wound closure. Wound closure can be automatically monitored using the wound confluence (% confluence). Wound confluence can be graphed over time to evaluate the characteristics of wound closing in the presence of pharmacological agents.
The calculation of the area under the curve (AUC) of the % confluence function of the time gave a quantitative measurement of compounds efficacy on the scratch wound closing. Compounds were titrated in quadruplicate at 5 points concentration starting at […] with a two-fold increment. The percentage of inhibition was calculated from the AUCs at each dose in comparison with the AUCs of the control wells (1% DMSO). Concentration-response curves were represented and the concentrations at the inflexion point (IP) were calculated. The maximum effect was given by the maximum percent inhibition.

SMILES | % Reduction Confluence C2C12 Cells (C2C12 cells [1]) | IC50 (P60c-src) | Max Toxicity C2C12 in cells % of cell death (C2C12 cells [2]) | IC50 (Jak2) | Max Toxicity Cell Assay % of cell death (CHO-K1 cells; at 25 μM) | IC50 [3] | Scratch Assay C2C12 Cells max inhibition in % [3] | Max Toxicity Cell Assay % of cell death (CHO-K1 cells; at 50 μM)
Cc1ccc(NC(=O)c2cccc(C(F)(F)F)c2)cc1-c1ccc(-n2cccn2)cc1 [Example 120] | 33.3% at 5 μM | > 100 µM | 10% 20 μM | > 100 µM | 8% at 25 μM | 3.1 µM | 43% | 
Cc1ccc(NC(=O)c2cccc(C(F)(F)F)c2)cc1-c1ccc(O)c(NC=O)c1 [Example 133] | 17.5% at 5 μM | > 100 µM | 10% 20 μM | > 100 µM |  | 6 µM | 42% | 15% at 50 μM
